# Values quoted from earlier work as cited in patent US20110262436A1, “TREATMENT METHOD” (Genentech, Inc., priority 2008, published 2011).
# Tested on: advanced, treatment-refractory NSCLC
# Conditions: phase III trial; cited from earlier work
structure (smiles),measurement,value
"C#Cc1cccc(Nc2ncnc3cc(OCCOC)c(OCCOC)cc23)c1 [erlotinib, N-(3-ethynylphenyl)-6,7-bis(2-methoxyethoxy)-4-quinazolinamine]","Survival, erlotinib monotherapy",significantly prolonged survival
